Test results from US20180119123A1, “CRISPR/CAS-RELATED METHODS AND COMPOSITIONS FOR TREATING HIV INFECTION AND AIDS” (EDITAS MEDICINE, INC., priority 2015, published 2018).
Entries after “also recorded” stand apart in the source; their conditions may differ.

Tests used:
[1] = tested on: human mobilized peripheral blood CD34^+ HSCs; test: Fold change in CD34+ cell number (trypan blue count) 96 hours after Nucleofection; type: cell-based
Experimental: (§1) Human CD34^+ HSCs cells from mobilized peripheral blood (AllCells) were thawed into StemSpan Serum-Free Expansion Medium (SFEM™, StemCell Technologies) containing 100 ng/mL each of the following cytokines: human stem cell factor (SCF), thrombopoietin (TPO), and flt-3 ligand (FL) (all from Peprotech). Cells were grown for 3 days in a humidified incubator and 5% CO2 20% O2. […] The published use of UM171 involved prolonged exposure of HSCs to the small molecule for ex vivo expansion of HSCs. In the current experiment, HSCs were exposed to UM171 for 2 hours before and 24 hours after delivery of Cas9 and gRNA plasmid DNA. This UM171 treatment protocol was based on pilot studies performed by the inventors that indicated acute pre-treatment with UM171 before lentivirus vector mediated gene delivery improved HSC viability compared to HSCs treated with vehicle (dimethylsulfoxide, DMSO, Sigma) alone. […] At 96 hours after Nucleofection™, CD34^+ cells were counted for by trypan blue exclusion and divided into 3 portions for the following analyses: a) flow cytometry analysis for assessment of viability by co-staining with 7-Aminoactinomycin-D (7-AAD) and allophycocyanin (APC)-conjugated Annexin-V antibody (ebioscience); b) flow cytometry analysis for maintenance of HSC phenotype (after co-staining with phycoerythrin (PE)-conjugated anti-human CD34 antibody and fluorescein isothicyanate (FITC)-conjugated anti-human CD90, both from BD Bioscience; c) hematopoietic colony forming cell (CFC) analysis by plating 1500 cells in semi-solid methylcellulose based Methocult medium (StemCell Technologies) that supports differentiation of erythroid and myeloid blood cell colonies from HSCs and serves as a surrogate assay to evaluate HSC multipotency and differentiation potential ex vivo; d) genomic DNA analysis for detection of editing at the CCR5 locus. […]

[2] = tested on: human mobilized peripheral blood CD34^+ HSCs; test: Viability by 7-AAD / Annexin-V flow cytometry 96 hours after Nucleofection; type: cell-based
Experimental: as §1

CD34^+ HSCs = test: Hematopoietic colony forming cell (CFC) assay in Methocult medium; type: cell-based, human; settings: Nucleofection with wild-type Cas9 and CCR5-U43 gRNA plasmid DNA + UM171; two weeks
Experimental: Human CD34^+ HSCs cells from mobilized peripheral blood (AllCells) were thawed into StemSpan Serum-Free Expansion Medium (SFEM™, StemCell Technologies) containing 100 ng/mL each of the following cytokines: human stem cell factor (SCF), thrombopoietin (TPO), and flt-3 ligand (FL) (all from Peprotech). Cells were grown for 3 days in a humidified incubator and 5% CO2 20% O2. […] The published use of UM171 involved prolonged exposure of HSCs to the small molecule for ex vivo expansion of HSCs. In the current experiment, HSCs were exposed to UM171 for 2 hours before and 24 hours after delivery of Cas9 and gRNA plasmid DNA. This UM171 treatment protocol was based on pilot studies performed by the inventors that indicated acute pre-treatment with UM171 before lentivirus vector mediated gene delivery improved HSC viability compared to HSCs treated with vehicle (dimethylsulfoxide, DMSO, Sigma) alone. After the 2-hour pretreatment with UM171, 1 million […] HSCs were Nucleofected™ with the Amaxa™ 4D Nucleofector™ device (Lonza), Program EO100 using components of the P3 Primary Cell 4D-Nucleofector Kit™ (Lonza) according to the manufacturer's instructions. Briefly, one million cells were suspended in Nucleofector™ solution and the following amounts of plasmid DNA were added to the cell suspension: 1250 ng plasmid expressing CCR5 gRNA (CCR5-U43) from the human U6 promoter and 3750 ng plasmid expressing wild-type S. pyogenes Cas 9 transcriptionally regulated by the CMV promoter. After Nucleofection™, cells were plated into Stemspan-SFEM™ supplemented with SCF, TPO, FL and 40 nM UM171. After overnight incubation, HSCs were plated in Stemspan-SFEM™ plus cytokines without UM171. At 96 hours after Nucleofection™, CD34^+ cells were counted for by trypan blue exclusion and divided into 3 portions for the following analyses: a) flow cytometry analysis for assessment of viability by co-staining with 7-Aminoactinomycin-D (7-AAD) and allophycocyanin (APC)-conjugated Annexin-V antibody (ebioscience); b) flow cytometry analysis for maintenance of HSC phenotype (after co-staining with phycoerythrin (PE)-conjugated anti-human CD34 antibody and fluorescein isothicyanate (FITC)-conjugated anti-human CD90, both from BD Bioscience; c) hematopoietic colony forming cell (CFC) analysis by plating 1500 cells in semi-solid methylcellulose based Methocult medium (StemCell Technologies) that supports differentiation of erythroid and myeloid blood cell colonies from HSCs and serves as a surrogate assay to evaluate HSC multipotency and differentiation potential ex vivo; d) genomic DNA analysis for detection of editing at the CCR5 locus. Genomic DNA was extracted from HSCs 96 hours after Nucleofection™, and CCR5 locus-specific PCR reactions were performed.
To evaluate maintenance of HSC potency and differentiation potential, two weeks after plating CD34^+ HSCs in CFC assays, hematopoietic activity was quantified based on scoring the HSC progeny by enumerating the total number of hematopoietic colony forming units (CFU) and the frequencies of specific blood cell phenotypes, including: mixed myeloid/erythroid (Granulocyte-erythroid-monocyte macrophage, CFU-GEMM), myeloid (CFU-macrophage (M), granulocyte-macrophage (CFU-GM)) and erythroid (CFU-E) colonies. CD34^+ HSCs that were Nucleofected™ after UM171 pre-treatment maintained CFC potential compared to un-Nucleofected™ HSCs (Table 12). In contrast, CD34^+ HSCs that were Nucleofected™ without UM171 pre-treatment had reduced CFC potential (lower total CFC counts and reduced numbers of mixed-phenotype colonies (CFU-GEMM) and erythroid colonies (CFU-E)) in comparison to un-Nucleofected™ CD34^+ HSCs.
Human CD34^+ HSCs cells from mobilized peripheral blood (AllCells) were thawed into StemSpan Serum-Free Expansion Medium (SFEM, StemCell Technologies) containing 100 ng/mL each of the following cytokines: human stem cell factor (SCF), thrombopoietin (TPO), and flt-3 ligand (FL) (all from Peprotech). […]

Cn1nnc(-c2ccc3c(c2)[nH]c2nc(Cc4ccccc4)nc(N[C@H]4CC[C@H](N)CC4)c23)n1 [UM171, (1r,4r)-N1-(2-benzyl-7-(2-methyl-2H-tetrazol-5-yl)-9H-pyrimido[4,5-b]indol-4-yl)cyclohexane-1,4-diamine]
Fold expansion / proliferation potential of Nucleofected CD34+ cells with UM171 pre-treatment versus without ([1]; 40 nM UM171, S. aureus or S. pyogenes Cas9 and CXCR4 gRNA plasmids): higher fold-expansion; also recorded: maintain proliferation potential
Fold change in cell number of CD34^+ cells (96 hours vs. time 0 cell number) ([1]; Nucleofection with wild type Cas9 and CCR5-U43 gRNA plasmid DNA + UM171 treatment (40 nM, 2 hours before and 24 hours after)): 1.5
Effect of UM171 on CD34+ HSC viability, survival and proliferation after Nucleofection ([2]; 40 nM UM171, 2 hours before and 24 hours after Nucleofection with Cas9 and CCR5-U43 gRNA plasmid DNA): preserved CD34^+ HSC viability; also recorded: critical for maintenance of HSC survival and proliferation
Effect of UM171 on HSC survival and proliferation after Nucleofection ([2]; pre-treatment and short-term (24-hour) co-culture, Cas9 and CXCR4 gRNA plasmid DNA): critical for maintenance of HSC survival and proliferation
Number of colony forming units: E (CD34^+ HSCs): 92 colony forming units per 1500 CD34^+ HSCs plated
Number of colony forming units: G (CD34^+ HSCs): 40 colony forming units per 1500 CD34^+ HSCs plated
Number of colony forming units: GEMM (CD34^+ HSCs): 20 colony forming units per 1500 CD34^+ HSCs plated
Number of colony forming units: GM (CD34^+ HSCs): 32 colony forming units per 1500 CD34^+ HSCs plated
Number of colony forming units: M (CD34^+ HSCs): 64 colony forming units per 1500 CD34^+ HSCs plated
Number of colony forming units: Total (CD34^+ HSCs): 228 colony forming units per 1500 CD34^+ HSCs plated
